Source: US11000033B2, “Ketone or oxime compound, and herbicide” (NISSAN CHEMICAL CORPORATION, priority 2014, dated 2021)

How the values were obtained:
Format in all cases: in vivo
beet = test: Test Example 4: effect on crop by soil treatment (symbol f); details: application herbicide amount 320 g/ha
Outline: (§1)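 Crop seed is sown in spots together with several weed species in a box of sterilized diluvial soil. It is covered by about 1.5 cm of soil and kept in a greenhouse held between 25° C. and 30° C.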

Abutilon theophrasti = test: Test Example 4: herbicidal effect by soil treatment (symbol M); details: application herbicide amount 320 g/ha
Outline: (§2)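 Seeds were sown in sterilized diluvial soil, covered with about 1.5 cm of soil, and the soil surface was sprayed with a water-diluted emulsion of the compound at a predetermined rate. Plants grew in a greenhouse at 25° C. to 30° C.; effects were scored visually 3 weeks after application.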

Galium spurium = test: Test Example 5: herbicidal effect by foliage application, plastic box (symbol Q); details: 320 g/ha, 3 weeks after application
Outline: (§3)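 Greenhouse foliar test: seedlings at 14 days, grown 25° C. to 30° C. in sterilized diluvial soil; compound applied as an aqueous dilution of an emulsion; response read 3 weeks after spraying.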

Digitaria ciliaris = test: Test Example 4: herbicidal effect by soil treatment (symbol F); details: application herbicide amount 320 g/ha
Outline: as §2

corn = test: Test Example 4: effect on crop by soil treatment (symbol c); details: application herbicide amount 320 g/ha
Outline: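 Soil-treatment setup: crop and weed seeds were spot-sown into sterilized diluvial soil, then buried beneath approximately 1.5 cm of it, and the boxes were housed in a 25–30° C. greenhouse.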

Monochoria vaginalis = test: Test Example 1: herbicidal activity, application before weed generation in submerged conditions (symbol C); details: application herbicide amount 320 g/ha
Outline: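 Greenhouse growth at 25–30 °C lasted 3 weeks after treatment, when each weed was graded 0–5 by herbicidal ratio. Treatment was a diluted emulsion applied to the water surface of 4 cm-submerged alluvial soil on the sowing day.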

Cyperus difformis = test: Test Example 3: herbicidal effect by foliage application, Wagner pot (symbol E); details: application herbicide amount 320 g/ha
Outline: (§4)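 Seeds sown in alluvial soil kept under 0.1–0.5 cm water, greenhouse 25–30 °C; 14 d growth. Leaves treated by small sprayer with water-diluted emulsion at a predetermined rate. Effect graded by set scale, 3 weeks.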

Amaranthus retroflexus = test: Test Example 4: herbicidal effect by soil treatment (symbol N); details: application herbicide amount 320 g/ha
Outline: as §2

[1] = system: Echinochloa oryzacola Vasing.; test: Test Example 2: herbicidal activity, application during weed generation in submerged conditions (symbol A); details: Table 23; application herbicide amount 320 g/ha; grade 0-5 by criteria of Test Example 1
Outline: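 Each pot contained alluvial soil under 4 cm of water with seeds of all three weeds sown together. Following growth at 25° C. to 30° C. to the one- to two-leaf stage, the floodwater received diluted emulsion at a predetermined amount; visual assessment followed at 3 weeks.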

Leptochloa chinensis = test: Test Example 3: herbicidal effect by foliage application, Wagner pot (symbol D); details: application herbicide amount 320 g/ha
Outline: as §4

soybean = test: Test Example 4: effect on crop by soil treatment (symbol d); details: application herbicide amount 320 g/ha
Outline: as §1

Lolium multiflorum Lam. = test: Test Example 5: herbicidal effect by foliage application, plastic box (symbol K); details: 320 g/ha, 3 weeks after application
Outline: as §3

Structure (SMILES)	f (beet) effect on crop grade (beet)	M (Abutilon theophrasti) herbicidal effect grade (Abutilon theophrasti)	Q: Galium spurium, herbicidal effect grade (Galium spurium)	F (Digitaria ciliaris) herbicidal effect grade (Digitaria ciliaris)	c (corn) effect on crop grade (corn)	Herbicidal effect grade, C: Monochoria vaginalis (Monochoria vaginalis)	herbicidal effect on E, grade 0-5 (Cyperus difformis)	N (Amaranthus retroflexus) herbicidal effect grade (Amaranthus retroflexus)	Herbicidal effect grade, A: Echinochloa oryzacola Vasing. [1]	herbicidal effect on D (Leptochloa chinensis), grade 0-5 (Leptochloa chinensis)	d (soybean) effect on crop grade (soybean)	K: Lolium multiflorum Lam., herbicidal effect grade (Lolium multiflorum Lam.)
CON=C(C)CC1CC(OC)=C(c2c(C)cc(C)cc2C)C1=O (stereo not drawn) [1-001, 2-mesityl-3-methoxy-5-{2-(methoxyimino)propyl}cyclopent-2-enone]	0 (Herbicidal ratio of 5% or lower (almost no effect))	0 (Herbicidal ratio of 5% or lower (almost no effect))	0 (Herbicidal ratio of 5% or lower (almost no effect))	0 (Herbicidal ratio of 5% or lower (almost no effect))	0 (Herbicidal ratio of 5% or lower (almost no effect))	0 (Herbicidal ratio of 5% or lower (almost no effect))	0 (Herbicidal ratio of 5% or lower (almost no effect))	0 (Herbicidal ratio of 5% or lower (almost no effect))	0 (Herbicidal ratio of 5% or lower (almost no effect))	0 (Herbicidal ratio of 5% or lower (almost no effect))	0 (Herbicidal ratio of 5% or lower (almost no effect))	0 (Herbicidal ratio of 5% or lower (almost no effect))
CON=C(C)CC1CC(O)=C(c2c(C)cc(C)cc2C)C1=O (stereo not drawn) [1-002, 3-hydroxy-2-mesityl-5-{2-(methoxyimino)propyl}cyclopent-2-enone]	3 (Herbicidal ratio of 40% or higher and lower than 70%)	5 (Herbicidal ratio of 90% or more (almost completely withered))	4 (Herbicidal ratio of 70% or higher and lower than 90%)	5 (Herbicidal ratio of 90% or more (almost completely withered))	4 (Herbicidal ratio of 70% or higher and lower than 90%)	4 (Herbicidal ratio of 70% or higher and lower than 90%)	5 (Herbicidal ratio of 90% or more (almost completely withered))	5 (Herbicidal ratio of 90% or more (almost completely withered))	5 (Herbicidal ratio of 90% or more (almost completely withered))	5 (Herbicidal ratio of 90% or more (almost completely withered))	0 (Herbicidal ratio of 5% or lower (almost no effect))	5 (Herbicidal ratio of 90% or more (almost completely withered))
CCON=C(C)CC1CC(O)=C(c2c(C)cc(C)cc2C)C1=O (stereo not drawn) [1-003]	2 (Herbicidal ratio of 20% or higher and lower than 40%)	4 (Herbicidal ratio of 70% or higher and lower than 90%)	3 (Herbicidal ratio of 40% or higher and lower than 70%)	5 (Herbicidal ratio of 90% or more (almost completely withered))	5 (Herbicidal ratio of 90% or more (almost completely withered))	5 (Herbicidal ratio of 90% or more (almost completely withered))	5 (Herbicidal ratio of 90% or more (almost completely withered))	3 (Herbicidal ratio of 40% or higher and lower than 70%)	5 (Herbicidal ratio of 90% or more (almost completely withered))	5 (Herbicidal ratio of 90% or more (almost completely withered))	3 (Herbicidal ratio of 40% or higher and lower than 70%)	5 (Herbicidal ratio of 90% or more (almost completely withered))
CC(CC1CC(O)=C(c2c(C)cc(C)cc2C)C1=O)=NOCC1CC1 (stereo not drawn) [1-024]	0 (Herbicidal ratio of 5% or lower (almost no effect))	3 (Herbicidal ratio of 40% or higher and lower than 70%)	3 (Herbicidal ratio of 40% or higher and lower than 70%)	5 (Herbicidal ratio of 90% or more (almost completely withered))	1 (Herbicidal ratio of 5% or higher and lower than 20%)	2 (Herbicidal ratio of 20% or higher and lower than 40%)	5 (Herbicidal ratio of 90% or more (almost completely withered))	4 (Herbicidal ratio of 70% or higher and lower than 90%)	5 (Herbicidal ratio of 90% or more (almost completely withered))	5 (Herbicidal ratio of 90% or more (almost completely withered))	1 (Herbicidal ratio of 5% or higher and lower than 20%)	5 (Herbicidal ratio of 90% or more (almost completely withered))
CC(CC1CC(O)=C(c2c(C)cc(C)cc2C)C1=O)=NOCC(=O)N1CCOCC1 (stereo not drawn) [1-025]	0 (Herbicidal ratio of 5% or lower (almost no effect))	0 (Herbicidal ratio of 5% or lower (almost no effect))	4 (Herbicidal ratio of 70% or higher and lower than 90%)	5 (Herbicidal ratio of 90% or more (almost completely withered))	0 (Herbicidal ratio of 5% or lower (almost no effect))	0 (Herbicidal ratio of 5% or lower (almost no effect))	5 (Herbicidal ratio of 90% or more (almost completely withered))	0 (Herbicidal ratio of 5% or lower (almost no effect))	1 (Herbicidal ratio of 5% or higher and lower than 20%)	5 (Herbicidal ratio of 90% or more (almost completely withered))	0 (Herbicidal ratio of 5% or lower (almost no effect))	5 (Herbicidal ratio of 90% or more (almost completely withered))
CC(CC1CC(O)=C(c2c(C)cc(C)cc2C)C1=O)=NOCC(C)O (stereo not drawn) [1-027]	0 (Herbicidal ratio of 5% or lower (almost no effect))	0 (Herbicidal ratio of 5% or lower (almost no effect))	3 (Herbicidal ratio of 40% or higher and lower than 70%)	5 (Herbicidal ratio of 90% or more (almost completely withered))	4 (Herbicidal ratio of 70% or higher and lower than 90%)	3 (Herbicidal ratio of 40% or higher and lower than 70%)	5 (Herbicidal ratio of 90% or more (almost completely withered))	0 (Herbicidal ratio of 5% or lower (almost no effect))	4 (Herbicidal ratio of 70% or higher and lower than 90%)	5 (Herbicidal ratio of 90% or more (almost completely withered))	0 (Herbicidal ratio of 5% or lower (almost no effect))	5 (Herbicidal ratio of 90% or more (almost completely withered))
CC(CC1CC(O)=C(c2c(C)cc(C)cc2C)C1=O)=NOCC(F)(F)F (stereo not drawn) [1-028]	0 (Herbicidal ratio of 5% or lower (almost no effect))	3 (Herbicidal ratio of 40% or higher and lower than 70%)	3 (Herbicidal ratio of 40% or higher and lower than 70%)	5 (Herbicidal ratio of 90% or more (almost completely withered))	0 (Herbicidal ratio of 5% or lower (almost no effect))	1 (Herbicidal ratio of 5% or higher and lower than 20%)	5 (Herbicidal ratio of 90% or more (almost completely withered))	3 (Herbicidal ratio of 40% or higher and lower than 70%)	5 (Herbicidal ratio of 90% or more (almost completely withered))	5 (Herbicidal ratio of 90% or more (almost completely withered))	0 (Herbicidal ratio of 5% or lower (almost no effect))	5 (Herbicidal ratio of 90% or more (almost completely withered))
